Data reported in PubChem BioAssay AID1985 (Southern Research Specialized Biocontainment Screening …, 2009).
Values joined by “and” are separate entries in the source; they are usually repeats but may differ in a detail not shown here. Equal values may be shown once.

Test system: S. Typhi PhoP-promoter GFP reporter, fluorescence, 4 h
Assay: PhoP regulon inhibitor project modified counter assay, GFP fluorescence readout, dose response (AID 1985)

Row | Compound | IC50
1 | C/C(=N/Nc1ccnc2cc(Cl)ccc12)c1ccc(N)cc1 | 55.3 µM
2 | CCCNC(=O)c1cn(CC)c2cc(N3CCN(C)CC3)c(F)cc2c1=O | 28 µM
3 | Cc1cc(N/N=C/c2ccc(O)cc2)c2cccc(C)c2n1 | 80.9 µM
4 | COc1cc([N+](=O)[O-])cc(/C=N/NC(=O)c2cccnc2)c1O | 66.7 µM
5 | O=c1[nH][nH]c(-c2ccccc2O)c1C(C[N+](=O)[O-])c1ccc(Br)cc1 (configuration not stated) | 71.7 µM
6 | Oc1ccc(N=Nc2ccc(Br)cc2)c(O)c1 | 87.8 µM
7 | Cc1ccc(Nc2c3c(nc4ccccc24)CCC3)cc1 | 39.8 µM
8 | CN1CCC(OC(=O)c2cccc(Br)c2)CC1 | 120 µM
9 | CCN(CC(=O)NC(C)(C)C)C(=O)COc1c(Cl)cc(Cl)c2ccc(C)nc12 | 43.5 µM
10 | CCOC(=O)c1c(N)sc(C(=O)Nc2ccc3c(c2)OCO3)c1C | 137 µM
11 | CCOC(=O)N/N=C\c1ccc([N+](=O)[O-])o1 | 23.7 µM
12 | Cc1ccc(C(=O)NNC(=S)NC(=O)c2ccccc2)cc1 | 62.8 µM
13 | Oc1ccc(C[C@@H]2CNCCN2CCCCC2CCCCC2)cc1 | 74.3 µM
14 | Cc1ccc2c(c1)N/C(=C(\C=C(/Cl)[N+](=O)[O-])[N+](=O)[O-])N2 | 81.1 µM
15 | N/C(=N\N=C/c1ccc(F)cc1)N/N=C\c1ccc(F)cc1 | 75.1 µM
16 | N#Cc1nc(Cc2cccc3ccccc23)oc1NCCCN1CCOCC1 | 62 µM
17 | Cc1ccc(OCc2nnc(NC(=O)c3cccnc3)s2)cc1 | 13.9 µM
18 | Nc1c2ccccc2nc2ccccc12 | 48 µM
19 | NC1=NC[C@H](c2ccccc2)N1CCCCC1CCCCC1 | 38.5 µM

Row | Compound | IC50
20 | CCn1cc(C(=O)NCC(C)C)c(=O)c2cc(F)c(N3CCN(C)CC3)cc21 | 30.6 µM
21 | CC(=O)NC(c1cccs1)c1cc([N+](=O)[O-])c2cccnc2c1O (configuration not stated) | 31.3 µM
22 | O=C(N/N=C/c1cc([N+](=O)[O-])ccc1O)C(O)(c1ccccc1)c1ccccc1 | 60.4 µM
23 | Cc1cc([N+](=O)[O-])cc(/C=N/n2c(C)nc3ccccc3c2=O)c1O | 53.6 µM
24 | CCn1cc(C(=O)O)c(=O)c2cnc(N3CCNCC3)nc21 | 113 µM
25 | C/C(Cn1nnc([N+](=O)[O-])n1)=N\NC(=O)c1ccccc1 | 149 µM
26 | CCOC(=O)c1c(-c2ccc(-c3ccccc3)cc2)csc1NC(=O)CNCCN(C)C | 82.2 µM
27 | O=S1(=O)Nc2c(ccc3cccnc23)-c2ccccc21 | 1.17 µM
28 | CS(=O)(=O)c1ccc([C@@H](O)[C@@H](CO)NC(=O)C(Cl)Cl)cc1 | 19.7 µM
29 | C=CCNc1ncnc2c1[nH]c1ccc(C)cc12 | 56.3 µM
30 | Nc1nc(Nc2ccccc2)nc2ccccc12 | 56.2 µM
31 | O=c1c2ccccc2nc(-c2cccc(Cl)c2)n1O | 113 µM
32 | O=C(/C=C/c1ccccc1)c1ccc(NC2=NCCCS2)cc1 | 117 µM
33 | CNC[C@H](Cc1ccccc1)NC[C@@H](Cc1cccc2ccccc12)NCCc1ccc(C)cc1 | 19.6 µM
34 | CN1CCN(C(c2cccc(Cl)c2)c2ccccc2Cl)CC1 (configuration not stated) | 107 µM
35 | O=C(CCN1CCN(c2ccccc2F)CC1)c1ccc(Br)cc1 | 43.4 µM
36 | CCCCCC(=O)NNC(=S)NC(C)=O | 22.9 µM
37 | CC(=O)OC1=C(O)C(=O)c2ccccc2C1=O | 78.6 µM
38 | COc1ccc(C2NCCc3c2[nH]c2ccccc32)cc1COc1ccc(F)cc1 (configuration not stated) | 78.5 µM

Row | Compound | IC50
39 | Nc1nc2ccccc2n1CCOc1ccccc1Cl | 63.1 µM
40 | C=C1c2c(Cl)ccc(O)c2C(O)=C2C(=O)[C@]3(O)C(O)=C(C(N)=O)C(=O)[C@@H](N(C)C)[C@@H]3[C@@H](O)C12 (some centres not stated) | 0.924 µM
41 | O=C(N[C@H](CO)[C@H](O)c1ccc([N+](=O)[O-])cc1)C(Cl)Cl | 2.71 µM
42 | NC(=NCCCCCCN=C(N)/N=C(\N)Nc1ccc(Cl)cc1)/N=C(\N)Nc1ccc(Cl)cc1 | 3.89 µM and 3.25 µM and 5.35 µM
43 | O=C(Nc1ccc(Cl)cc1)c1cccs1 | 105 µM
44 | CN(C)CCCN1c2ccccc2Sc2ccc(Cl)cc21 | 88.1 µM and 81.4 µM
45 | c1ccc(Nc2nc(NCc3ccco3)c3ccccc3n2)cc1 | 24 µM
46 | CC(NCC(O)COc1ccc2ccccc2c1)c1ccccc1 (configuration not stated) | 132 µM
47 | CN1CCN(C2Cc3cc(F)ccc3Sc3ccc(Cl)cc32)CC1 (configuration not stated) | 74.4 µM
48 | Cc1ccc(NC(=O)c2ccccc2)s1 | 91.9 µM
49 | CCCCOc1ccc(C(=O)NNC(=S)NC(=O)CC)cc1 | 38.9 µM
50 | Cc1ccc(C(c2cc(Cl)c3cccnc3c2O)N2CCN(C)CC2)cc1 (configuration not stated) | 48.2 µM
51 | O=C(Cn1nc(CNc2ccc(Cl)cc2)[n+]2c1CCCCC2)c1ccc(Br)cc1 | 77.5 µM
52 | O=C1NCCCC1C(=O)N/N=C/c1cc([N+](=O)[O-])ccc1O (configuration not stated) | 114 µM
53 | COc1ccc(CCN2CCC(Nc3nc4ccccc4n3Cc3ccc(F)cc3)CC2)cc1 | 105 µM
54 | COc1cccc(CNCCc2c[nH]c3ccccc23)c1OCc1ccccc1 | 150 µM
55 | CCCCNC1=CC(=O)C(=O)c2ccccc21 | 104 µM
56 | COc1cccc(F)c1C(C[N+](=O)[O-])c1c(N)n(C)c(=O)n(C)c1=O (configuration not stated) | 142 µM
57 | CCn1cc(C(=O)O)c(=O)c2cc(F)c(N3CCN(C(=S)NC(=O)c4cc(OC)cc(OC)c4)CC3)cc21 | 3.11 µM
